Measured values taken from patent publication US8952024B2, “Herbicidal pyrimidone derivatives” (E I du Pont de Nemours and Company, priority 2009, dated 2015).
Like-named read-outs stand apart in the source and are kept apart here.

Columns and labels:
Experiment in all cases: Test B pre-/postemergence plant response
Assay type in all cases: in vivo
[1] = test system: blackgrass (Alopecurus myosuroides); details: Preemergence, 250 g ai/ha; 0 to 100 scale
Text: (§1) Seeds of plant species selected from blackgrass (Alopecurus myosuroides), downy bromegrass (Bromus tectorum), green foxtail (Setaria viridis), Italian ryegrass (Lolium multiflorum), wheat (Triticum aestivum), wild oat (Avena fatua), deadnettle (henbit deadnettle, Lamium amplexicaule), galium (catchweed bedstraw, Galium aparine), bermudagrass (Cynodon dactylon), Surinam grass (Brachiaria decumbens), cocklebur (Xanthium strumarium), corn (Zea mays), large crabgrass (Digitaria sanguinalis), woolly cupgrass (Eriochloa villosa), giant foxtail (Setaria faberii), goosegrass (Eleusine indica), johnsongrass (Sorghum halepense), kochia (Kochia scoparia), lambsquarters (Chenopodium album), morningglory (Ipomoea coccinea), nightshade (eastern black nightshade, Solanum ptycanthum), yellow nutsedge (Cyperus esculentus), pigweed (Amaranthus retroflexus), ragweed (common ragweed, Ambrosia elatior), Russian thistle (Salsola kali), soybean (Glycine max), sunflower (common oilseed sunflower, Helianthus annuus) and velvetleaf (Abutilon theophrasti) were planted into a blend of loam soil and sand and treated preemergence with test compounds formulated in a non-phytotoxic solvent mixture which included a surfactant.
(§2) At the same time, plants selected from these crop and weed species and also winter barley (Hordeum vulgare), canarygrass (Phalaris minor), chickweed (Stellaria media) and windgrass (Apera spica-venti) were planted in pots containing Redi-Earth® planting medium (Scotts Company, 14111 Scottslawn Road, Marysville, Ohio 43041) comprising spaghnum peat moss, vermiculite, wetting agent and starter nutrients and treated with postemergence applications of some of the test chemicals formulated in the same manner. Plants ranged in height from 2 to 18 cm (1- to 4-leaf stage) for postemergence treatments.
(§3) Treated plants and controls were maintained in a greenhouse for 13 to 15 days, after which time all treated plants were visually evaluated and compared to controls. Plant response ratings, summarized in Table B, are based on a scale of 0 to 100 where 0 is no effect and 100 is complete control. A dash (-) response means no test result.

[2] = test system: Surinam grass (Brachiaria decumbens); details: for pest or weed control at 31 g/ha: 31 g ai/ha; for pest or weed control at 62 g/ha: 62 g ai/ha; for pest or weed control at 125 g/ha: 125 g ai/ha
Text: as §1, §2, §3

[3] = test system: pigweed (Amaranthus retroflexus); details: for pest or weed control at 31 g/ha: 31 g ai/ha; for pest or weed control at 62 g/ha: 62 g ai/ha; for pest or weed control at 125 g/ha: 125 g ai/ha
Text: as §1, §2, §3

wild oat (Avena fatua) = details: for pest or weed control at 31 g/ha: 31 g ai/ha; for pest or weed control at 62 g/ha: 62 g ai/ha; for pest or weed control at 125 g/ha: 125 g ai/ha
Text: as §1, §2, §3

kochia (Kochia scoparia) = details: for pest or weed control at 31 g/ha: 31 g ai/ha; for pest or weed control at 62 g/ha: 62 g ai/ha; for pest or weed control at 125 g/ha: 125 g ai/ha
Text: as §1, §2, §3

[4] = test system: lambsquarters (Chenopodium album); details: for pest or weed control at 31 g/ha: 31 g ai/ha; for pest or weed control at 62 g/ha: 62 g ai/ha; for pest or weed control at 125 g/ha: 125 g ai/ha
Text: as §1, §2, §3

[5] = test system: cocklebur (Xanthium strumarium); details: Preemergence
Text: as §1, §2, §3

[6] = Preemergence, 250 g ai/ha, 0 to 100 scale
[7] = Urochloa decumbens, pre-emergence, Preemergence, scale 0 to 100 (0 no effect, 100 complete control), read-out: Plant response rating, Surinam Grass
[8] = Amaranthus retroflexus, pre-emergence, Preemergence, scale 0 to 100 (0 no effect, 100 complete control), read-out: Plant response rating, Pigweed
[9] = Avena fatua, pre-emergence, Preemergence, scale 0 to 100 (0 no effect, 100 complete control), read-out: Plant response rating, Oat, Wild
[10] = Bassia scoparia, pre-emergence, Preemergence, scale 0 to 100 (0 no effect, 100 complete control), read-out: Plant response rating, Kochia
[11] = Chenopodium album, pre-emergence, Preemergence, scale 0 to 100 (0 no effect, 100 complete control), read-out: Plant response rating, Lambsquarters

COCCn1c(-c2cc(F)cc(F)c2)ncc(C(=O)C2=C(O)C3CCC(C3)C2=O)c1=O (centres unmarked) [Compound 243, 2-(3,5-difluorophenyl)-5-[(2-hydroxy-4-oxobicyclo[3.2.1]oct-2-en-3-yl)carbonyl]-3-(2-methoxyethyl)-4(3H)-pyrimidinone]
80%: pest or weed control at 31 g/ha [2, 7] | pest or weed control at 31 g/ha (wild oat (Avena fatua); Avena fatua, post-emergence, Postemergence, 0 to 100 scale (0 no effect, 100 complete control), read-out: Plant response rating, Oat, Wild)
100: Surinam Grass plant response rating [2, 6] | Pigweed plant response rating [3, 6] | Kochia plant response rating (kochia (Kochia scoparia); [6]) | Lambsquarters plant response rating [4, 6]
98%: pest or weed control at 62 g/ha [2, 7] | pest or weed control at 62 g/ha [3, 8]
20%: pest or weed control at 62 g/ha (kochia (Kochia scoparia); [10])
98: Cocklebur plant response rating ([5]; 250 g ai/ha, 0 to 100 scale)
95: Blackgrass plant response rating [1]
95%: pest or weed control at 62 g/ha ([2]; Urochloa decumbens, post-emergence, Postemergence, scale 0 to 100 (0 no effect, 100 complete control), read-out: Plant response rating, Surinam Grass) | pest or weed control at 62 g/ha (kochia (Kochia scoparia); Bassia scoparia, post-emergence, Postemergence, scale 0 to 100 (0 no effect, 100 complete control), read-out: Plant response rating, Kochia) | pest or weed control at 125 g/ha ([5]; Xanthium strumarium, pre-emergence, 125 g ai/ha, scale 0 to 100, 0 no effect, 100 complete control, read-out: Plant response rating, Cocklebur)
100%: pest or weed control at 125 g/ha ([2]; Urochloa decumbens, post-emergence, Postemergence, scale 0 (no effect) to 100 (complete control), 13 to 15 days, read-out: Plant response rating, Surinam Grass) | pest or weed control at 250 g/ha ([2]; Urochloa decumbens, post-emergence, Postemergence, 250 g ai/ha, scale 0 to 100 (0 no effect, 100 complete control), 13 to 15 days, read-out: Plant response rating, Surinam Grass) | pest or weed control at 125 g/ha ([2]; Urochloa decumbens, pre-emergence, Preemergence, scale 0 to 100, 0 no effect, 100 complete control, read-out: Plant response rating, Surinam Grass) | pest or weed control at 62 g/ha ([3]; Amaranthus retroflexus, post-emergence, Postemergence, scale 0 to 100 (0 no effect, 100 complete control), read-out: Plant response rating, Pigweed) | pest or weed control at 125 g/ha ([3]; Amaranthus retroflexus, post-emergence, Postemergence, scale 0 (no effect) to 100 (complete control), 13 to 15 days, read-out: Plant response rating, Pigweed) | pest or weed control at 250 g/ha ([3]; Amaranthus retroflexus, post-emergence, Postemergence, 250 g ai/ha, scale 0 to 100 (0 no effect, 100 complete control), 13 to 15 days, read-out: Plant response rating, Pigweed) | pest or weed control at 125 g/ha ([3]; Amaranthus retroflexus, pre-emergence, Preemergence, scale 0 to 100, 0 no effect, 100 complete control, read-out: Plant response rating, Pigweed) | pest or weed control at 250 g/ha (wild oat (Avena fatua); Avena fatua, post-emergence, Postemergence, 250 g ai/ha, scale 0 to 100 (0 no effect, 100 complete control), 13 to 15 days, read-out: Plant response rating, Oat, Wild) | pest or weed control at 125 g/ha (kochia (Kochia scoparia); Bassia scoparia, post-emergence, Postemergence, scale 0 (no effect) to 100 (complete control), 13 to 15 days, read-out: Plant response rating, Kochia) | pest or weed control at 250 g/ha (kochia (Kochia scoparia); Bassia scoparia, post-emergence, Postemergence, 250 g ai/ha, scale 0 to 100 (0 no effect, 100 complete control), 13 to 15 days, read-out: Plant response rating, Kochia) | pest or weed control at 31 g/ha ([4]; Chenopodium album, post-emergence, Postemergence, 0 to 100 scale (0 no effect, 100 complete control), read-out: Plant response rating, Lambsquarters) | pest or weed control at 62 g/ha ([4]; Chenopodium album, post-emergence, Postemergence, scale 0 to 100 (0 no effect, 100 complete control), read-out: Plant response rating, Lambsquarters) | pest or weed control at 125 g/ha ([4]; Chenopodium album, post-emergence, Postemergence, scale 0 (no effect) to 100 (complete control), 13 to 15 days, read-out: Plant response rating, Lambsquarters) | pest or weed control at 250 g/ha ([4]; Chenopodium album, post-emergence, Postemergence, 250 g ai/ha, scale 0 to 100 (0 no effect, 100 complete control), 13 to 15 days, read-out: Plant response rating, Lambsquarters) | pest or weed control at 31 g/ha [4, 11] | pest or weed control at 62 g/ha [4, 11] | pest or weed control at 125 g/ha ([4]; Chenopodium album, pre-emergence, Preemergence, scale 0 to 100, 0 no effect, 100 complete control, read-out: Plant response rating, Lambsquarters)
85%: pest or weed control at 31 g/ha ([3]; Amaranthus retroflexus, post-emergence, Postemergence, 0 to 100 scale (0 no effect, 100 complete control), read-out: Plant response rating, Pigweed) | pest or weed control at 62 g/ha (wild oat (Avena fatua); Avena fatua, post-emergence, Postemergence, scale 0 to 100 (0 no effect, 100 complete control), read-out: Plant response rating, Oat, Wild) | pest or weed control at 125 g/ha (wild oat (Avena fatua); Avena fatua, post-emergence, Postemergence, scale 0 (no effect) to 100 (complete control), 13 to 15 days, read-out: Plant response rating, Oat, Wild) | pest or weed control at 62 g/ha (wild oat (Avena fatua); [9]) | pest or weed control at 125 g/ha (wild oat (Avena fatua); Avena fatua, pre-emergence, Preemergence, scale 0 to 100, 0 no effect, 100 complete control, read-out: Plant response rating, Oat, Wild) | pest or weed control at 31 g/ha (kochia (Kochia scoparia); Bassia scoparia, post-emergence, Postemergence, 0 to 100 scale (0 no effect, 100 complete control), read-out: Plant response rating, Kochia)
90: Oat, Wild plant response rating (wild oat (Avena fatua); [6])
15%: pest or weed control at 31 g/ha (kochia (Kochia scoparia); [10])
75%: pest or weed control at 31 g/ha [3, 8] | pest or weed control at 62 g/ha ([5]; Xanthium strumarium, pre-emergence, 62 g ai/ha, scale 0 to 100 (0 no effect, 100 complete control), read-out: Plant response rating, Cocklebur)
30%: pest or weed control at 31 g/ha (wild oat (Avena fatua); [9])
90%: pest or weed control at 31 g/ha ([2]; Urochloa decumbens, post-emergence, Postemergence, 0 to 100 scale (0 no effect, 100 complete control), read-out: Plant response rating, Surinam Grass) | pest or weed control at 125 g/ha (kochia (Kochia scoparia); Bassia scoparia, pre-emergence, Preemergence, scale 0 to 100, 0 no effect, 100 complete control, read-out: Plant response rating, Kochia)
